# Earlier results as cited in patent US10292953B2 (priority 2013, dated 2019).
# Read-outs that look alike come from different tables or passages of the source.
# How the values were obtained:
# ulceration of the cornea = conditions: 1% topical solution, rabbits with ulceration of the cornea
# porcine cornea = conditions: solution, in vitro
# corneal pain [1] = conditions: dogs, aqueous solution of 1%, topical ocular
# corneal pain [2] = conditions: cats, aqueous solution of 1%, topical ocular
smiles,measurement,setting,value
Oc1ccc2c3c1O[C@H]1[C@@H](O)CC[C@@]4(O)[C@@H](C2)N(CC2CCC2)CC[C@]314 [nalbuphine],analgesic efficacy,ulceration of the cornea,Neither did the opioid semi-synthetic nalbuphine applied in the form of 1% topical solution demonstrate analgesic efficacy
CC(C)Cc1ccc(C(C)C(=O)O)cc1.N=C(N)NCCC[C@H](N)C(=O)O (centres unmarked),effect on integrity of the cornea,porcine cornea,adversely affected the integrity of the cornea
CN1CC[C@]23c4c5ccc(O)c4O[C@H]2[C@@H](O)C=C[C@H]3[C@H]1C5 [morphine],analgesic effects in treatment of corneal pain,corneal pain [1],did not demonstrate analgesic effects
same,analgesic effects in treatment of corneal pain,corneal pain [2],did not demonstrate analgesic effects
CC(C)Cc1ccc(C(C)C(=O)O)cc1.NCCCC[C@H](N)C(=O)O (centres unmarked),effect on integrity of the cornea,porcine cornea,adversely affected the integrity of the cornea
